Measured values as given in ChEMBL document CHEMBL5365543, “Benzamidine Conjugation Converts Expelled Potential Active Agents into Antifungals against Drug-Resistant Fungi” (J Med Chem, 2023).
In brackets after ≈: the same amount, converted by molar mass. Activity calls are given as the source filed them. No cut-off for these calls is given here.

Assays:
Candida albicans [1] = assay: Antifungal activity against wild-type Candida albicans SC5314 assessed as inhibition of fungal growth measured after 24 hrs by CLSI based microtiter plate analysis; assay type: functional
[2] = Drug accumulation in wild-type Candida albicans SC5314 at 50 microg/ml incubated for 3 hrs by HPLC analysis; assay type: ADME; conditions: dose 50 µg/ml
Candida albicans [3] = assay: microbe, parasite or virus in culture; assay type: functional; conditions: DSY654, time 24 hrs
Candida albicans [4] = assay: Antifungal activity against clinical isolate Candida albicans SCUPC2R14MPG2A harbouring UPC2 mutation overexpressing […] Erg11 assessed as inhibition of fungal growth measured after 24 hrs by CLSI based microtiter plate analysis; assay type: functional
Candida albicans [5] = assay: Antifungal activity against clinical isolate Candida albicans SCMRRIR34MPG2A harbouring MRR1 mutation overexpressing efflux pump MdrL assessed as inhibition of fungal growth measured after 24 hrs by CLSI based microtiter plate analysis; assay type: functional
Cryptococcus neoformans = assay: Antifungal activity against clinical isolate fluconazole-resistant Cryptococcus neoformans H99 assessed as inhibition of fungal growth measured after 24 hrs by CLSI based microtiter plate analysis; assay type: functional
[Candida] auris [6] = Antifungal activity against clinical isolate fluconazole-resistant Candida auris CBS12774 assessed as inhibition of fungal growth measured after 24 hrs by CLSI based microtiter plate analysis; assay type: functional; conditions: Candidozyma auris
Candida albicans [7] = assay: Antifungal activity against clinical isolate fluconazole-resistant Candida albicans G5 harbouring MRR1 mutation overexpressing MdrL assessed as inhibition of fungal growth measured after 24 hrs by CLSI based microtiter plate analysis; assay type: functional
Candida tropicalis = assay: Antifungal activity against clinical isolate fluconazole-resistant Candida tropicalis CT10 assessed as inhibition of fungal growth measured after 24 hrs by CLSI based microtiter plate analysis; assay type: functional
Candida albicans [8] = assay: Antifungal activity against clinical isolate Candida albicans YEM13 overexpressing efflux pump MdrL assessed as inhibition of fungal growth measured after 24 hrs by CLSI based microtiter plate analysis; assay type: functional
Candida albicans [9] = assay: Antifungal activity against clinical isolate fluconazole-resistant Candida albicans Gu5 harbouring TAC1 mutation overexpressing efflux pump CdrL and Cdr2 assessed as inhibition of fungal growth measured after 24 hrs by CLSI based microtiter plate analysis; assay type: functional
Candida albicans [10] = assay: Antifungal activity against clinical isolate fluconazole-resistant Candida albicans DSY296 harbouring TAC1 mutation overexpressing efflux pump CdrL and Cdr2 assessed as inhibition of fungal growth measured after 24 hrs by CLSI based microtiter plate analysis; assay type: functional
Candida albicans [11] = assay: Antifungal activity against clinical isolate Candida albicans YEM15 overexpressing efflux pump CdrL and Cdr2 assessed as inhibition of fungal growth measured after 24 hrs by CLSI based microtiter plate analysis; assay type: functional
Candida albicans [12] = assay: Antifungal activity against clinical isolate fluconazole-resistant Candida albicans CA632 assessed as inhibition of fungal growth measured after 24 hrs by CLSI based microtiter plate analysis; assay type: functional
Nakaseomyces glabratus = assay: Antifungal activity against clinical isolate fluconazole-resistant Candida glabrata CG2 assessed as inhibition of fungal growth measured after 24 hrs by CLSI based microtiter plate analysis; assay type: functional
[Candida] auris [13] = Antifungal activity against clinical isolate fluconazole-resistant Candida auris CBS12776 assessed as inhibition of fungal growth measured after 24 hrs by CLSI based microtiter plate analysis; assay type: functional; conditions: Candidozyma auris
[14] = Candida albicans, SC5314, read-out: MIC80
[15] = Candida albicans, SC5314, 24 h, read-out: MIC80

For `Fc1ccc(C(c2ccc(F)cc2)N2CCNCC2)cc1`, the MIC (Candida albicans [1]; Candida albicans, SC5314) was over 256 µg/mL and the Drug uptake ([2]; BLD = below limit of detection) was “Bld”.

In the case of `C=C(C)[C@@H]1CC[C@]2(C(=O)OCCCOc3ccc(C(=N)N)cc3)CC[C@]3(C)[C@H](CC[C@@H]4[C@@]5(C)CC[C@H](O)C(C)(C)[C@@H]5CC[C@]43C)[C@@H]12`, the MIC80 (Candida albicans [1]; [14]) is reported as 64 µg/mL (≈ 101 µM) and the Drug uptake [2] is reported as “Active”.

In the case of `C=C1C(=O)O[C@@]23CC[C@H]4[C@@](C)(CCC[C@@]4(C)C(=O)OCCCOc4ccc(C(=N)N)cc4)[C@@H]2CC[C@]1(O)C3`, the MIC80 (Candida albicans [1]; [14]) is reported as 32 µg/mL (≈ 61 µM) and the Drug uptake [2] is reported as “Active”.

With `C=C(C)[C@@H]1CC[C@]2(C(=O)O)CC[C@]3(C)[C@H](CC[C@@H]4[C@@]5(C)CC[C@H](O)C(C)(C)[C@@H]5CC[C@]43C)[C@@H]12` [BETULINIC ACID] the MIC (Candida albicans [1]; Candida albicans, SC5314) was over 256 µg/mL and the Drug uptake ([2]; BLD = below limit of detection) was “Bld”.

With `CC1(C)[C@@H]2CC[C@@]1(C)[C@@H](OC(=O)CCCOc1ccc(C(=N)N)cc1)C2` the MIC80 (Candida albicans [1]; [14]) was 8 µg/mL (≈ 22.3 µM) and the Drug uptake [2] was “Active”.

In the case of `CC/C(=C(/CC)c1ccc(O)cc1)c1ccc(O)cc1` [DIETHYLSTILBESTROL], the MIC (Candida albicans [3]) is reported as 4 µg/mL (≈ 14.9 µM).

With `C#C[C@]1(O)CC[C@H]2[C@@H]3CCC4=CCCC[C@@H]4[C@H]3C(=C)C[C@@]21CC` [DESOGESTREL] the MIC (Candida albicans [3]) was 4 µg/mL (≈ 12.9 µM) and the Drug uptake ([2]; BLD = below limit of detection) was “Bld”.

With `C=C1C(=O)O[C@@]23CC[C@H]4[C@@](C)(CCC[C@@]4(C)C(=O)O)[C@@H]2CC[C@]1(O)C3` the MIC (Candida albicans [1]; Candida albicans, SC5314) was over 256 µg/mL and the Drug uptake ([2]; BLD = below limit of detection) was “Bld”.

With `O=C(O)c1ccccc1Nc1cccc(C(F)(F)F)c1` [FLUFENAMIC ACID] the MIC (Candida albicans [1]; Candida albicans, SC5314) was over 256 µg/mL and the Drug uptake ([2]; BLD = below limit of detection) was “Bld”.

`N=C(N)c1ccc(OCCCBr)cc1` showed an MIC80 (Candida albicans [3]) of over 256 µg/mL and an MIC80 (Candida albicans [1]; [14]) of over 256 µg/mL.

For `Clc1ccc2c(c1)CCc1cccnc1C2=C1CCNCC1` [DESLORATADINE], the Drug uptake ([2]; BLD = below limit of detection) was “Bld”.

Work on `CCc1n(CCCI)c2ccccc2[n+]1C.[I-]` yielded an MIC80 (Candida albicans [3]) of over 256 µg/mL and an MIC80 (Candida albicans [1]; [14]) of over 256 µg/mL.

Compound `Cc1cc(N)c2ccccc2[n+]1CCCCCI.[I-]` has an MIC80 (Candida albicans [3]) of 128 µg/mL and an MIC80 (Candida albicans [1]; [14]) of 128 µg/mL.

With `C[C@@H]1CC[C@@]2(OC1)O[C@H]1C[C@H]3[C@@H]4CC=C5C[C@@H](OC(=O)CCCOc6ccc(C(=N)N)cc6)CC[C@]5(C)[C@H]4CC[C@]3(C)[C@H]1[C@@H]2C` the MIC80 (Candida albicans [1]; [14]) was 64 µg/mL (≈ 103 µM) and the Drug uptake [2] was “Active”.

In the case of `C[C@@H]1CC[C@@]2(OC1)O[C@H]1C[C@H]3[C@@H]4CC=C5C[C@@H](O)CC[C@]5(C)[C@H]4CC[C@]3(C)[C@H]1[C@@H]2C` [DISOGENIN], the MIC (Candida albicans [1]; Candida albicans, SC5314) is reported as over 256 µg/mL and the Drug uptake ([2]; BLD = below limit of detection) is reported as “Bld”.

`C=C1C[C@@]2(CC)[C@@H](CC[C@@]2(O)c2cn(CCCOc3ccc(C(=N)N)cc3)nn2)[C@@H]2CCC3=CCCC[C@@H]3[C@@H]12` gave an MIC80 (Candida albicans [4]) of 64 µg/mL (≈ 121 µM), an MIC80 (Candida albicans [5]) of 64 µg/mL (≈ 121 µM) and an MIC80 (Cryptococcus neoformans) of 64 µg/mL (≈ 121 µM). The MIC80 ([Candida] auris [6]) was 64 µg/mL (≈ 121 µM), the MIC (Candida albicans [1]) was “inactive” and the MIC80 (Candida albicans [1]; [15]) was 32 µg/mL (≈ 60.4 µM). The MIC80 (Candida albicans [7]) was 64 µg/mL (≈ 121 µM), the MIC80 (Candida tropicalis) was 64 µg/mL (≈ 121 µM) and the MIC80 (Candida albicans [8]) was 32 µg/mL (≈ 60.4 µM). The MIC80 (Candida albicans [9]) was 64 µg/mL (≈ 121 µM), the MIC80 (Candida albicans [10]) was 64 µg/mL (≈ 121 µM) and the MIC80 (Candida albicans [11]) was 64 µg/mL (≈ 121 µM). For the same compound, the MIC80 (Candida albicans [12]) was 32 µg/mL (≈ 60.4 µM), the Drug uptake [2] was “Active” and the MIC80 (Nakaseomyces glabratus) was 64 µg/mL (≈ 121 µM). The MIC80 ([Candida] auris [13]) was 64 µg/mL (≈ 121 µM).

For `C=CCc1ccc(O)c(-c2ccc(OCCCOc3ccc(C(=N)N)cc3)c(CC=C)c2)c1`, the MIC80 (Candida albicans [4]) was 8 µg/mL (≈ 18.1 µM), the MIC80 (Candida albicans [5]) was 8 µg/mL (≈ 18.1 µM) and the MIC80 (Cryptococcus neoformans) was 8 µg/mL (≈ 18.1 µM). For the same compound, the MIC80 ([Candida] auris [6]) was 8 µg/mL (≈ 18.1 µM), the MIC (Candida albicans [1]) was “inactive” and the MIC80 (Candida albicans [1]; [15]) was 8 µg/mL (≈ 18.1 µM). The MIC80 (Candida albicans [7]) was 8 µg/mL (≈ 18.1 µM), the MIC80 (Candida tropicalis) was 16 µg/mL (≈ 36.2 µM) and the MIC80 (Candida albicans [8]) was 8 µg/mL (≈ 18.1 µM). For the same compound, the MIC80 (Candida albicans [9]) was 8 µg/mL (≈ 18.1 µM), the MIC80 (Candida albicans [10]) was 8 µg/mL (≈ 18.1 µM) and the MIC80 (Candida albicans [11]) was 8 µg/mL (≈ 18.1 µM). The MIC80 (Candida albicans [12]) was 8 µg/mL (≈ 18.1 µM), the Drug uptake [2] was “Active” and the MIC80 (Nakaseomyces glabratus) was 16 µg/mL (≈ 36.2 µM). For the same compound, the MIC80 ([Candida] auris [13]) was 16 µg/mL (≈ 36.2 µM).

With `C[C@H]1[C@H](C)CC[C@]2(C(=O)O)CC[C@]3(C)C(=CC[C@@H]4[C@@]5(C)CC[C@H](O)C(C)(C)[C@@H]5CC[C@]43C)[C@H]12` [URSOLIC ACID] the Drug uptake ([2]; BLD = below limit of detection) was “Bld”.

In the case of `CCOC(=O)C1=C(COCCN)NC(C)=C(C(=O)OC)C1c1ccccc1Cl` (stereo not drawn) [AMLODIPINE], the MIC (Candida albicans [3]) is reported as 32 µg/mL (≈ 78.3 µM) and the Drug uptake ([2]; BLD = below limit of detection) is reported as “Bld”.
